In patent publication US20040023990A1, “Use of pyrazolo[4,3-d]pyrimidines” (priority 2000, published 2004):

A melting point of 178 °C was found for `CCCc1nn(C)c2c(NCc3ccc(OC)c(Cl)c3)nc(CCC(=O)O)nc12` [Example 2, 3-[7-(3-chloro4-methoxybenzylamino)-1-methyl-3-propyl-1H-pyrazolo-[4,3-d]pyrimidin-5-yl]propionic acid] in this work.
